Assay [1] has as its system ventricular tachyarrhythmias following LAD coronary artery ligation. The experiment in a line: Model 1: two-stage LAD coronary artery ligation, Holter EKG monitoring 2-24 hr (ventricular triplets, sustained VT/VF, death). The assay is classed as in vivo, dog. The conditions noted are these: for fastest ventricular triplet rate observed per hour after LAD ligation (FIG. 18, FIG. 32): 4 to 24 hr after LAD ligation; for mortality (dogs died of group): 24 hr after LAD ligation, etanercept 2 mg/kg at -24 and -1 hr, bortezomib 0.0875 mg/kg at -1 and +6 hr, anakinra 10 mg/kg at -1 and +12 hr, control 4 of 10, preliminary. The method, then: The two-stage ligation procedure results in a very low incidence of ventricular fibrillation (<5-10%) during the initial 6 hours following coronary artery occlusion (Harris et al., 1951). Almost all ventricular fibrillation occurs during the initial 30 minutes with a high proportion of successful defibrillation. Ambulatory EKG monitoring is performed over the 2-24 hr period following coronary artery ligation. During the 6-24 hr period, a 25-40% incidence of rapid monomorphic ventricular tachycardia (385±15/min) leading to ventricular fibrillation is observed at 13.3±0.8 hours post-LAD ligation (FIG. 1), with a mean duration of monomorphic ventricular tachycardia preceding ventricular fibrillation of 66±7 sec. When provocative ventricular pacing is performed at 24 hours, however, the reentrant substrate supporting sustained ventricular tachycardia is present in more than 80% of the surviving dogs with no difference in rate between spontaneous and pacing-induced sustained monomorphic ventricular tachycardias (FIG. 3).
In the 24-hr Infarct (Model 1) Studies, each control and etanercept pretreated animal was monitored for ventricular arrhythmias using a Holter 2-lead recording for the duration of time following LAD ligation. […] In the saline control group, 4 animals died at 11-24 hours post ligation. […]
Model 1: Electrophysiologic correlates of myocardial infarction over a 24-hr period. Eighteen 15-22 kg male mongrel dogs were anesthetized with IV sodium pentobarbital (30 mg/kg). A cuffed endotracheal tube was inserted and the animals were ventilated with room air using a volume-cycled respirator. […] The dogs were extubated and allowed to awaken in a temperature-controlled, humidified small animal post-operative recovery unit. They were given nalbuphine 0.2 mg/kg for post-operative analgesia. During the 2-24 hr period following LAD ligation, Holter monitoring was performed and the two-lead EKG was recorded on magnetic tape. Dogs were re-anesthetized with sodium pentobarbital at 24-hr. The thoracotomy was reopened and the heart was removed and perfused with ice-cold Tyrode's buffer via the left main coronary artery. The outer 0.5-1.5 mm EBZ tissue overlying the infarct was shaved and a longitudinal sample of tissue from the LAD region was stained with triphenyltetrazolium chloride (0.1%) to determine viability of the EBZ. Triphenyltetrazolium (TTZ) forms a brick-red precipitate in the presence of active intracellular dehydrogenases, delineating vital tissue. Non-viable tissues are not stained and remain a pale color. […] Tissue samples from the RS, the EBZ and the infarct tissue were dissected rapidly on an ice-cold surface, placed in freezer vials, and frozen in liquid nitrogen. These samples were then stored at −70° C. for later assay.
EKG Analysis: Full disclosure EKG records were obtained at 10 mm/sec for the entire 2-24 hour post-occlusion period. All measurements and calculations were made by direct visual observation and manual counting.
Anti-TNFα Treatment: A dosage of 2 mg/kg hTNFR:Fc (supplied as etanercept, Amgen, Inc, Thousand Oaks, Calif.) or saline were injected IV into a forepaw vein at 24-hr and again 1-hr prior to LAD ligation. […] This dosage was used after consultation with the pharmaceutical corporate pharmacology section and based on unpublished internal data that this dosage would provide maximal sequestration of tissue and circulating TNFα.

Assay [2] has as its system proteasome. As to the kind of experiment: Proteasome chymotrypsin-like peptidase activity in packed whole blood cells after injection. The class given is in vivo, dog. The settings on record: 0.175 mg/kg, 1 hr before and 8 hr after LAD ligation; 1-24 hr after first injection; n=4. The method, then:
(§1) Whole blood was measured at each time interval (FIGS. 29A and 29B), and ischemic myocardial tissue proteasome activity was measured at the final time interval (FIG. 30).
(§2) Proteasome activity: Activity was determined by proteasome chymotrypsin-like peptidase activity assay. Both cardiac (all groups) and whole blood cell (groups 4 and 5) proteasome activity was assayed. 30 mg frozen cardiac tissue was powdered in liquid nitrogen and sonicated in 0.5 ml buffer. Samples were then centrifuged for 30 min at 10,000 g at 4° C. and the supernatant was used for the assay. For preparing whole blood cell, heparinized blood was washed one time with saline and twice with cold PBS. The cells were lysed with EDTA (5 mM, pH 8.0) for 1 hr and centrifuged at 6600 g for 10 min at 4° C. and the supernatant was used for the assay. 0.4 mM Suc-Ala-Ala-Phe-MAC (Bachem California) was used as substrate. […] The time course for fluorescence was measured using a VICTOR3 Multilabel Counter (Perkin Elmer, Inc) at time 0 and every 5 min for 1 h to estimate the MAC liberated (excitation 380 nm, emission 460 nm). Slopes and intercepts were calculated using Microsoft Excel. Final results were expressed as fluorescence units/μg protein/min.

The subject of assay [3] is proteasome. The experiment in a line: Proteasome chymotrypsin-like peptidase activity in myocardial tissue (RS, EBZ, INF) after injection. The assay is classed as in vivo, dog. The conditions noted are these: 0.175 mg/kg, INF tissue 23-hr after LAD ligation, n=4, control tissues averaged 45 FU/100 μg protein/min. The method, then: as §1, §2
The subject of assay [4] is β-adrenergic receptor kinase (βARK). The experiment in a line: βARK immunoblot of EBZ tissue 24 hr after LAD ligation (Model 1). The conditions noted are these: bortezomib pretreated dog versus saline control, 24-hour infarct. The assay is classed as in vivo, dog. The method, then:
βARK immunoblots were used to estimate βARK expression (Yu et al., 2000).
Western Blot Analysis: Assessment of βARK content was conducted using standard SDS-PAGE and immunoblot techniques. Samples containing 100 μg of protein from myocardial extracts were electrophoresed using 10% SDS-PAGE and transferred to nitrocellulose membranes. The membrane was incubated with monoclonal anti-βARK (Upstate Biotechnology, Inc, Lake Placid, N.Y.), followed by exposure to peroxidase-linked anti-mouse IgG. Antibody binding was detected by a chemiluminescent method (ECL, Amersham Biosciences Corp, Piscataway, N.J.). Quantification of immunoreactive proteins was performed by densitometric scanning and with Image QuaNT software (Molecular Dynamics).
β-ARK, Proteasome and Ubiquitin Expression Assays: β-ARK, ubiquitinated β-ARK and proteasome in EBZ and RS tissues was determined by Western blot analysis. Samples were adjusted after protein concentration was assayed (BCA, Pierce Chemicals) to provide identical loads. 100 μg protein was combined with equal volume of SDS sample buffer, and electrophoresed on a 10% polyacrylamide gel. The blocked membranes were incubated with mouse anti β-ARK monoclonal antibody (Santa Cruz Biotechnology, Santa Cruz, Calif.) for 1-h at room temperature followed by anti-mouse IgG coupled to horseradish peroxidase and developed using an ECL western blotting kit (Amersham). The bands were scanned, stripped and reprobed with mouse anti-ubiquitin antibody (Santa Cruz Biotechnology, Santa Cruz, Calif.). The membrane was rescanned, stripped a second time and reprobed with rabbit anti-proteasome 20S C2 subunit polyclonal antibody (A.G. Scientific, Inc. CA). A separate control gel was included that was similarly treated, but reprobed with the identical Ab and band quality and density compared to the previous data obtained before stripping. Quantitation of immunoreactive bands was performed by densitometric scanning using ImageQuant software (Molecular Dynamics).
For orientation: Immunoblotting shows a protein as a band on a membrane.

The target in assay [5] is β-adrenergic receptors in epicardium. The experiment in a line: Action potential shortening with isoproterenol in epicardium. More on the design: species or system dog. From the text:
This information is consistent with increased β-ARK-1 activity and decreased β-adrenergic receptor sensitivity in ventricular myocardium with chronic catecholamine administration or the converse, a decrease in β-ARK-1 with prolonged β-adrenergic receptor blockade (Pye et al., 2003).

In assay [6] the target is β-adrenergic receptor / adenylate cyclase. The conditions noted are these: read-out: mean EC50, isoproterenol-AC activity, SEM, n=4.
Protocol: FIG. 10 illustrates an isoproterenol-AC activity dose-response curve in EBZ and RS tissue obtained 24 hours after LAD ligation. Data are shown for 1 of 4 experiments. Each point is mean of duplicate samples.
Assay [7] has as its system ventricular tachyarrhythmias following LAD coronary artery ligation. The settings on record: nadolol-treated dogs (Patterson et al., 1986), cited from earlier work.

One may read the EC50 as the midpoint of the concentration-response curve.

“Also recorded” adds a separate entry of the source. Where two headings read alike, the source gives them in different places.

Turning to `CC(C)C[C@H](NC(=O)[C@H](Cc1ccccc1)NC(=O)c1cnccn1)B(O)O` [bortezomib], in assay [1], the “fastest ventricular triplet rate observed per hour after LAD ligation (FIG. 18, FIG. 32)” value is “marked decrease” and the “mortality (dogs died of group)” value is listed as 0 of 6. Besides, the “very rapid (≧360 bpm) ventricular triplets versus control (FIG. 31B)” value in assay [1] (etanercept 2 mg/kg, bortezomib 0.0875 mg/kg) is given as “significant descrease; also recorded: no triplets in this range”. Further, the “packed whole blood proteasome activity after injection” value in the assay on proteasome [2] was “significant decrease in proteasome activity”. Besides, the “myocardial tissue proteasome activity 24-hr after first injection” value in the assay on proteasome [3] is listed as “decreased from control tissues”. Moreover, the “protection against loss of βARK (GRK2) protein in EBZ, Western immunoblot (FIG. 34)” value in assay [4] is reported as “marked protection against loss of βARK protein; also recorded: significant protection against loss of GRK2 expression”.
In the case of `CC(C)NCC(O)c1ccc(O)c(O)c1` (centres unmarked) [isoproterenol], the EC50 in assay [5] (control normal tissue) is 0.47 nM; in assay [5] (remote site normal tissue, 24 hours post LAD ligation), 14.3 nM; in assay [6] (EBZ tissue 24 hours after LAD ligation), 18 ± 8.9 nM; in assay [6] (RS tissue 24 hours after LAD ligation) it was 73 ± 22 nM.
For the compound `CC(C)(C)NCC(O)COc1cccc2c1CC(O)C(O)C2` (centres unmarked) [nadolol], the “incidence of sudden death, 2-24 hr after coronary artery ligation” value in assay [7] (FIG. 6) was “reduce the incidence of sudden death”. In addition, in assay [7] (FIGS. 7 and 8), the “rate and number of rapid ventricular triplets, 2-24 hr after coronary artery ligation” value was “reduce both the rate and number of rapid ventricular triplets”. In assay [7], the “incidence of pacing-induced sustained monomorphic reentrant tachycardia in surviving animals at 24 hours” value is listed as “without reducing the incidence” and the infarct mass result is recorded as “without altering infarct mass”.
For “anakinra: interleukin-1 antagonist (IL-1 inhibitor)”, in assay [1], the “fastest ventricular triplet rate observed per hour after LAD ligation (FIG. 18, FIG. 32)” value is “no significant difference between etancercept and anakinra”; the “mortality (dogs died of group)” value is reported as 1 of 7. In addition, the “rapid (>300 bpm) ventricular triplets per hour versus control (FIG. 31A)” value in assay [1] (etanercept 2 mg/kg, bortezomib 0.0875 mg/kg, anakinra 10 mg/kg) is “relatively low until 8 hours after LAD and then rose rapidly”.

Values taken from patent publication US7348305B2, “Inhibitor of cardiac tachyarrhythmias” (Department of Veterans Affairs, Rehabilitation, priority 2003, dated 2008).
